Residues, ends and D or L forms follow the SMILES beside them. *: point of attachment. Boc = CC(C)(C)OC(=O)*
First: CNCC(=O)Nc1ccc(C2=NN(C(C)=O)C(C)Cc3cc4c(cc32)OCO4)cc1 (centres undefined)
Second: COc1cc(CN2C(C(=O)O)=C(c3ccc4c(c3)OCO4)c3ccccc3S2(=O)=O)cc2c1OCO2
The melting point of the first is higher: 220 to 222 °C for the first, 181 to 182 °C for the second.

First: N#CC(C(N)=O)c1ccc(F)c(Cl)c1 (centres undefined)
Second: O=C1Cc2ccc(F)cc2Sc2cc(F)c(Cl)cc21
The melting point of the first is higher: 156 to 157 °C for the first, 131 to 133 °C for the second.

First: CC(C)(C)OC1CCC2(C)C(=CCC3C4CCC(=O)C4(C)CCC32)C1 (centres undefined)
Second: CCCN(CCC)CC(=O)OC1CC2(C)C(C(C)=O)CCC2C2CCC3CC(O)CCC3(C)C12 (centres undefined)
The melting point of the first is higher: 185 to 187 °C for the first, 116 to 118 °C for the second.

First: CCc1ccc(-c2ccc(C(=O)Nc3ccc4cc(CN5CCCC5)cnc4c3C)cc2)cc1
Second: CCCOc1nc2cccc(C(=O)OCC)c2n1Cc1ccc(-c2ccccc2-c2nnn[nH]2)cc1
The melting point of the first is higher: 189 to 190 °C for the first, 157 to 159 °C for the second.

First: CC1OC(=O)N(Cc2ccccc2[N+](=O)[O-])C1=O (centres undefined)
Second: CCOC(=O)CNc1c([N+](=O)[O-])cc([N+](=O)[O-])c2ccccc12
The melting point of the first is lower: 114 °C for the first, > 305 °C for the second.

First: CNC1=NC2(O)c3ccc(OCC(F)(F)C(F)(F)C(F)(F)F)cc3CC2S1 (centres undefined)
Second: N#Cc1ccnc(Nc2ccc(-n3nc(C(F)(F)F)cc3C(F)(F)F)cc2)c1
The melting point of the first is higher: 178 to 180 °C for the first, 152 to 153 °C for the second.

First: Nc1cccc(-c2ccnc3c(C(=O)c4cccs4)cnn23)c1
Second: CCOC(=O)c1cnc2c3ccccc3ccn2c1=N
The melting point of the first is lower: 183 to 184 °C for the first, 197 to 199 °C for the second.

First: CC1=C(C(=O)OC(C)(C)C)C(c2ccccc2)C(C(=O)OC(C)(C)C)=C(C)N1
Second: CC(C)(C)c1cc(C=Cc2ccccc2NC(=O)NCc2ccccn2)cc(C(C)(C)C)c1O
The melting point of the first is lower: 187 to 188 °C for the first, 207 to 210 °C for the second.

Compared with CCCOc1cc(/C=C/C(=O)OCC)n(Cc2ccccc2)n1, CCCCCCC(C)(C)c1ccc(Br)c(OCc2ccccc2)c1 is higher in melting point: 56 to 57 °C for the first, 58 to 59 °C for the second.

First: COc1nc(C)nc(NC(=O)NS(=O)(=O)c2c(Cl)cccc2C(C)F)n1 (centres undefined)
Second: Cc1cc(O)n2nc(S(=O)(=O)Nc3c(Cl)cccc3Cl)nc2n1
The melting point of the first is lower: 181 to 183 °C for the first, 302 °C for the second.

Compared with O=C(O)c1ccccc1-c1ccc(C(F)(F)F)c(Cl)c1, CC(C)C(=O)c1cn(C)cc(-c2cccc(C(F)(F)F)c2)c1=O is lower in melting point: 181 to 184 °C for the first, 104 to 105 °C for the second.

Compared with CN(C)CC(=O)N1CCN2C(=O)N(c3cc(Cl)cc(Cl)c3)C(=O)C2(Cc2ccc(Br)cc2)C1 (centres undefined), O=C(O)COc1cc(Cl)ccc1C(=O)NCc1ccc(Cl)c(Cl)c1 is higher in melting point: 73.5 °C for the first, 177 to 178 °C for the second.

First: CCOC(=O)C1=C(COCc2nnn(CCN)n2)NC(C)=C(C(=O)OC)C1c1ccccc1Cl (centres undefined)
Second: CC(C)n1nc(-c2c(OCCN(C)C)nc(N)nc2-c2ccccc2)ccc1=O
The melting point of the first is lower: 126 to 127 °C for the first, 130 to 132 °C for the second.

First: c1ccc(-c2cnc(Nc3ccncn3)s2)cc1
Second: c1cncc(OCCCn2cc(-c3cc4nccnc4[nH]3)c3ccccc32)c1
The melting point of the first is higher: > 250 °C for the first, 208 to 209 °C for the second.

Compared with CC(C)(C)OC(=O)NCCNC(=O)c1cccc2c1c(C(=O)C(=O)NC1=CC(=O)OC1)cn2Cc1ccc(Cl)cc1, C#CC[C@@H](NCCCNC(=O)OCc1ccccc1)c1nc2cc(Cl)ccc2c(=O)n1Nc1ccccc1 is lower in melting point: 218 to 219 °C for the first, 63 to 65 °C for the second.

Compared with COc1cccc2c1OC(CN1CC=C(c3c[nH]c4cc(F)ccc34)CC1)CO2 (centres undefined), COc1cc(C(C)=O)ccc1-c1ccc(F)cc1 is lower in melting point: 184 to 185 °C for the first, 75 to 77 °C for the second.

First: COC(=O)c1ccc(Cn2nc(Cl)c3ccc([N+](=O)[O-])cc32)c(OC)c1
Second: COc1ccc(C)cc1N1CCN(C(=O)Nc2cc3ccccc3nc2OC)CC1
The melting point of the first is higher: 131 to 132 °C for the first, 115 to 116 °C for the second.

First: CSc1noc(C2CC2)c1C(=O)c1ccc(C(F)(F)F)nc1C
Second: COc1ccc(C2Cc3c(cccc3C(F)(F)F)NC(=O)C2CO)cc1 (centres undefined)
The melting point of the first is lower: 103 to 104 °C for the first, 189 to 190 °C for the second.

Compared with O=[N+]([O-])c1ccc(Oc2ccc(CBr)cc2)cc1, NC(=O)N(O)Cc1ccc(OCc2ccccc2)cc1 is higher in melting point: 68 to 70 °C for the first, 147 to 149 °C for the second.

First: CC(=NO)c1ccncc1
Second: Cc1c(C(=O)c2cccnc2)sc2cc(Br)ccc12
The melting point of the first is higher: 154 to 155 °C for the first, 110 to 111 °C for the second.

Compared with CC1(C)CC(=O)c2cc(OCc3ccccc3)ccc2O1, [O-][N+](=Cc1ccc(OCc2ccccc2)cc1)C1CCCCCCC1 is higher in melting point: 105 to 107 °C for the first, 108 °C for the second.

Compared with O=C1CCCCC1C(C[N+](=O)[O-])c1ccccc1Cl (racemic), c1ccc(CN2c3ccccc3-c3noc4c3C2CCC4)cc1 (centres undefined) is higher in melting point: 107 to 108 °C for the first, 162 to 164 °C for the second.

Compared with CCC(=O)c1c(O)oc(=O)c(C(=O)CC)c1O, CCC(=O)c1nc(C(C)(C)C)c(O)c(C(C)(C)C)n1 is higher in melting point: 114 to 115 °C for the first, 123 to 125 °C for the second.

First: CC(=O)OCC(CCn1cnc2nc(N)ncc21)COC(C)=O
Second: CC(C)n1nc(-c2cnc(N)nc2-c2cccc(F)c2)ccc1=O
The melting point of the first is lower: 137 to 139 °C for the first, 220 to 222 °C for the second.

First: Cc1cn(C(C)(C)C(=O)N(C)C)nc1-c1ccc(Cl)cc1
Second: CS(=O)c1ccc(C2=CC(=O)C(C)(C)O2)cc1 (centres undefined)
The melting point of the first is higher: 122 to 124 °C for the first, 108 to 109 °C for the second.

First: O=C1c2ccccc2C(=O)N1CCCSC1N=CC=CN1NC(=S)NCC(F)(F)F (centres undefined)
Second: O=C(O)CCCCCCN1C(=O)c2ccccc2C1=O
The melting point of the first is higher: 214 to 215 °C for the first, 112 to 115 °C for the second.

First: CN1C(=O)C(C2=COc3ccccc3O2)=C(c2cn(C(=O)OC(C)(C)C)c3ccc(OCc4ccccc4)cc23)C1=O
Second: COCn1nc(N2C(=O)c3ccccc3C2=O)c2cc(S(=O)(=O)C(C)C)cc(OCCc3ccccn3)c21
The melting point of the first is lower: 93 °C for the first, 160 to 161 °C for the second.

First: CNc1nc2c(cc1NC(=O)N1CCN(c3cc(OC)cc(OC)c3)CC1)CCC2
Second: CON=C(C)c1cccc(Nc2nc(OC)cc(OC)n2)c1C(=O)OC
The melting point of the first is higher: 148 to 150 °C for the first, 82 to 84 °C for the second.

First: Cc1cc(CC#N)cc(Cc2nc3c(F)c(F)ccc3s2)c1
Second: Cc1ccccc1-c1cccc(F)c1C#N
The melting point of the first is higher: 84 to 86 °C for the first, 57 to 58 °C for the second.

Compared with CC1(C)CCC(C)(C)c2c(O)cc(Br)cc21, Cc1cc2c(cc1C1=NNC(=O)CC1C)N(C)C(=O)CO2 (centres undefined) is higher in melting point: 93 °C for the first, 180 to 182 °C for the second.

First: Cc1cccc2cc3c(=O)[nH]cc(C(=O)O)c3nc12
Second: O=C(O)Cn1c(=O)sc2cc(-c3ccccc3)c(Cl)cc21
The melting point of the first is higher: > 300 °C for the first, 262 to 266 °C for the second.

Compared with N#CC(=CN1CCOCC1)Cc1ccc2c(c1)OCO2, CN1C(=O)CC[C@]2(C)c3ccc(-c4ccc5c(c4)OCCO5)cc3CC[C@@H]12 is higher in melting point: 85 to 85.5 °C for the first, 183 to 189 °C for the second.

First: c1ccc2c(c1)Oc1ccccc1-n1nnnc1-2
Second: C[C@H](NC(=O)OCC1c2ccccc2-c2ccccc21)C(=O)O
The melting point of the first is higher: 206 to 208 °C for the first, 144 to 146 °C for the second.

First: COC(=O)c1cc2c(cc1N)OCO2
Second: COc1ccc(Br)cc1OC(=O)c1ccccc1
The melting point of the first is higher: 107 to 108 °C for the first, 73 to 75 °C for the second.

First: O=C(NC(=O)C(Cl)CCl)Nc1cccc(Cl)c1Cl (centres undefined)
Second: CC(=O)OC1=C(OC(C)=O)C(=O)c2cc(Cl)ccc2C1=O
The melting point of the first is higher: 195 to 196 °C for the first, 110 to 111 °C for the second.

First: CCOC(=O)CCCC(=O)c1ccc(Br)s1
Second: CC#CCOc1ccc(OCC(=O)NO)cc1
The melting point of the first is lower: 53 to 54 °C for the first, 100 to 105 °C for the second.

First: Nc1cc(-c2noc(-c3cnn4c(C(F)(F)F)cc(-c5ccc(Cl)c(Cl)c5)nc34)n2)ccn1
Second: c1cn(CCc2nc(-c3ccc4c(c3)OCO4)c3cc4c(cc3n2)OCO4)cn1
The melting point of the first is higher: 262 °C for the first, 160 to 163 °C for the second.

First: Cc1cc(F)ccc1-c1ccc(S(=O)(=O)N2c3ccccc3CC2C(=O)NCCOc2cc(F)c(C(=O)O)c(F)c2)cc1 (centres undefined)
Second: Cc1nc(N2CCN(Cc3ncoc3-c3ccccc3)C2=O)sc1C(=O)NCc1cccnc1
The melting point of the first is higher: 97 to 111 °C for the first, 78 to 81 °C for the second.

Compared with c1cc(N2CCNCC2)cnn1, Cc1nc2c3c(c(C(=O)N(C)C)cc2n1C)CCC1(Cc2ccccc2C1)N3 is lower in melting point: > 300 °C for the first, 178 to 179 °C for the second.

Compared with CON=Cc1cc([N+](=O)[O-])c(Cl)cc1Cl, CCCC1=C(C#N)C(c2cccc([N+](=O)[O-])c2Cl)c2c[nH]nc2N1 (centres undefined) is higher in melting point: 129 to 132 °C for the first, 234 to 235 °C for the second.

First: CC(C)OC(=O)c1cc(-n2c(=O)[nH]c3c(c2=O)CCCC3)c(F)cc1Cl
Second: CSc1sc(C(N)=O)c2c1-c1[nH]c(-c3ccccc3)nc1CC2
The melting point of the first is lower: 203 to 205 °C for the first, 206 to 207 °C for the second.

First: CC(=O)OCC1OC(Cl)C(N=[N+]=[N-])C(OC(C)=O)C1OC1OC(COC(C)=O)C(OC(C)=O)C(OC(C)=O)C1OC(C)=O (centres undefined)
Second: CC(C)(C)OC(=O)N1CCCC1C(=O)NC(Cc1ccccc1)C(=O)NCC(=O)O (stereo not drawn) (Boc-Pro-Phe-Gly-OH; configuration not given here)
The melting point of the first is higher: 167 to 168 °C for the first, 98 to 100 °C for the second.

First: CCCCc1ncc(/C=C2\C(=O)NC(=O)N2CCCC)n1Cc1ccc(C(=O)O)cc1
Second: Cc1cc(Br)cnc1CCCCNc1ncc(Cc2ccc(F)cc2)c(=O)[nH]1
The melting point of the first is lower: 163 to 165 °C for the first, 172 to 173 °C for the second.

First: CCCCCC(CCCCC)=NN=C1NC(=O)C(CC(=O)O)S1 (centres undefined)
Second: CCCCCCCCCCNC(=O)c1cc(NCC(=O)O)cc(C(=O)NCCCCCCCCCC)c1
The melting point of the first is lower: 134 to 135 °C for the first, 172 to 173 °C for the second.

First: CCCCCCCCCCCCCC=CCC(O)C(=O)O (centres undefined)
Second: COc1ccc(/C(=C\C=C\C(=O)O)c2ccccc2OC)cc1
The melting point of the first is lower: 78 to 79.5 °C for the first, 159 to 161 °C for the second.

First: CC1(C)Oc2ccc(C#N)cc2[C@@H](NC=O)[C@@H]1OC=O (relative stereo)
Second: C=CCC1(C(=O)OC)C(=O)Nc2ccccc2CC1c1ccc(OC)cc1 (centres undefined)
The melting point of the first is lower: 171 to 172 °C for the first, 175 to 176 °C for the second.

Compared with O[C@@H]1C=C[C@H](n2cnc3c(NCC(c4ccccc4)c4ccccc4)ncnc32)C1 (racemic), C#CCNC(=O)c1ncn2c1CN(C)C(=O)c1ccccc1-2 is higher in melting point: 165 to 169 °C for the first, 213 to 215 °C for the second.

First: COc1nc(NN)c(C(F)(F)F)cc1Cl
Second: COc1ccc2c(c1)C(c1ccc(N)cc1)=NN=C(C)C2
The melting point of the first is higher: 140 to 142 °C for the first, 136 to 138 °C for the second.

First: CCCc1nc2c(N)nc3cc(OCc4ccc(Cl)cc4)ccc3c2n1CC(C)C
Second: Oc1ccc2c(c1)COc1c-2cc2ccc(O)cc2c1-c1ccco1
The melting point of the first is higher: 215 to 217 °C for the first, 158 to 163 °C for the second.

COc1ccc2c(c1OCC#N)CCC=C2 showed a melting point of 138 to 139 °C.
